The values below are quoted from earlier work in patent publication US20020004046A1, “Combination therapy of respiratory diseases using antibodies” (priority 2000, published 2002).

The conditions of data set [1]: compared with untreated patients.

Consider `NC(=O)c1ncn([C@@H]2O[C@H](CO)[C@@H](O)[C@H]2O)n1` [ribavirin], for which the “level of secondary infection following cessation of treatment” value in data set [1] is “significantly higher”. Besides, where the note is “given orally”, the bioavailability result is on record as “about 45%”. In addition, for the setting “in vivo, po”, the “time of peak concentrations in plasma” value was 1 to 2 h.
